From ChEMBL document CHEMBL3286379, “Design and synthesis of pyrimidine molecules endowed with thiazolidin-4-one as new anticancer agents” (Eur J Med Chem, 2014)

How the values were obtained:
Format in all cases: functional
[1] = Growth inhibition of human OVCAR5 cells assessed as cell growth at 10 uM after 48 hrs by sulforhodamine B assay relative to control; conditions: OVCAR-5, 48 h, read-out: Activity
PC-3 = test: Growth inhibition of human PC3 cells assessed as cell growth at 10 uM after 48 hrs by sulforhodamine B assay relative to control; conditions: PC-3, 48 h, read-out: Activity
SF-268 = test: Growth inhibition of human SF268 cells assessed as cell growth at 10 uM after 48 hrs by sulforhodamine B assay relative to control; conditions: SF-268, 48 h, read-out: Activity
M14 = test: Growth inhibition of human M14 cells assessed as cell growth at 10 uM after 48 hrs by sulforhodamine B assay relative to control; conditions: M14, 48 h, read-out: Activity
[2] = Growth inhibition of human NCI-ADR-RES cells assessed as cell growth at 10 uM after 48 hrs by sulforhodamine B assay relative to control; conditions: read-out: Activity
SNB-75 = test: Growth inhibition of human SNB75 cells assessed as cell growth at 10 uM after 48 hrs by sulforhodamine B assay relative to control; conditions: SNB-75, 48 h, read-out: Activity
DU-145 = test: Growth inhibition of human DU145 cells assessed as cell growth at 10 uM after 48 hrs by sulforhodamine B assay relative to control; conditions: DU-145, 48 h, read-out: Activity
[3] = Growth inhibition of human OVCAR3 cells assessed as cell growth at 10 uM after 48 hrs by sulforhodamine B assay relative to control; conditions: OVCAR-3, 48 h, read-out: Activity
RPMI-8226 = test: Growth inhibition of human RPMI8226 cells assessed as cell growth at 10 uM after 48 hrs by sulforhodamine B assay relative to control; conditions: RPMI-8226, 48 h, read-out: Activity
NCI-H322M = test: Growth inhibition of human NCI-H322M cells assessed as cell growth at 10 uM after 48 hrs by sulforhodamine B assay relative to control; conditions: read-out: Activity
MDA-MB-231 = test: Growth inhibition of human MDA-MB-231 cells assessed as cell growth at 10 uM after 48 hrs by sulforhodamine B assay relative to control; conditions: MDA-MB-231, 48 h, read-out: Activity
HT-29 = test: Growth inhibition of human HT-29 cells assessed as cell growth at 10 uM after 48 hrs by sulforhodamine B assay relative to control; conditions: HT-29, 48 h, read-out: Activity
A549 = test: Growth inhibition of human A549/ATCC cells assessed as cell growth at 10 uM after 48 hrs by sulforhodamine B assay relative to control; conditions: A549, 48 h, read-out: Activity
[4] = Growth inhibition of human UACC62 cells assessed as cell growth at 10 uM after 48 hrs by sulforhodamine B assay relative to control; conditions: UACC-62, 48 h, read-out: Activity
786-0 = test: Growth inhibition of human 786-0 cells assessed as cell growth at 10 uM after 48 hrs by sulforhodamine B assay relative to control; conditions: 786-0, 48 h, read-out: Activity
SN12C = test: Growth inhibition of human SN12C cells assessed as cell growth at 10 uM after 48 hrs by sulforhodamine B assay relative to control; conditions: read-out: Activity
MDA-MB-468 = test: Growth inhibition of human MDA-MB-468 cells assessed as cell growth at 10 uM after 48 hrs by sulforhodamine B assay relative to control; conditions: MDA-MB-468, 48 h, read-out: Activity
SK-MEL-5 = test: Growth inhibition of human SK-MEL-5 cells assessed as cell growth at 10 uM after 48 hrs by sulforhodamine B assay relative to control; conditions: SK-MEL-5, 48 h, read-out: Activity
T47D = test: Growth inhibition of human T47D cells assessed as cell growth at 10 uM after 48 hrs by sulforhodamine B assay relative to control; conditions: read-out: Activity
[5] = Growth inhibition of human Hs 578T cells assessed as cell growth at 10 uM after 48 hrs by sulforhodamine B assay relative to control; conditions: read-out: Activity
ACHN = test: Growth inhibition of human ACHN cells assessed as cell growth at 10 uM after 48 hrs by sulforhodamine B assay relative to control; conditions: read-out: Activity
HOP-62 = test: Growth inhibition of human HOP62 cells assessed as cell growth at 10 uM after 48 hrs by sulforhodamine B assay relative to control; conditions: HOP-62, 48 h, read-out: Activity
Malme-3M = test: Growth inhibition of human MALME-3M cells assessed as cell growth at 10 uM after 48 hrs by sulforhodamine B assay relative to control; conditions: read-out: Activity
COLO 205 = test: Growth inhibition of human COLO205 cells assessed as cell growth at 10 uM after 48 hrs by sulforhodamine B assay relative to control; conditions: COLO 205, 48 h, read-out: Activity
SW-620 = test: Growth inhibition of human SW620 cells assessed as cell growth at 10 uM after 48 hrs by sulforhodamine B assay relative to control; conditions: SW-620, 48 h, read-out: Activity
[6] = Growth inhibition of human HCT15 cells assessed as cell growth at 10 uM after 48 hrs by sulforhodamine B assay relative to control; conditions: HCT-15, 48 h, read-out: Activity
U-251 = test: Growth inhibition of human U251 cells assessed as cell growth at 10 uM after 48 hrs by sulforhodamine B assay relative to control; conditions: U-251, 48 h, read-out: Activity
[7] = Growth inhibition of human UO31 cells assessed as cell growth at 10 uM after 48 hrs by sulforhodamine B assay relative to control; conditions: UO-31, 48 h, read-out: Activity
A498 = test: Growth inhibition of human A498 cells assessed as cell growth at 10 uM after 48 hrs by sulforhodamine B assay relative to control; conditions: A498, 48 h, read-out: Activity
CCRF-CEM = test: Growth inhibition of human CCRF-CEM cells assessed as cell growth at 10 uM after 48 hrs by sulforhodamine B assay relative to control; conditions: read-out: Activity
[8] = Growth inhibition of human SF295 cells assessed as cell growth at 10 uM after 48 hrs by sulforhodamine B assay relative to control; conditions: SF-295, 48 h, read-out: Activity
HCT-116 = test: Growth inhibition of human HCT116 cells assessed as cell growth at 10 uM after 48 hrs by sulforhodamine B assay relative to control; conditions: HCT-116, 48 h, read-out: Activity
[9] = Growth inhibition of human RXF393 cells assessed as cell growth at 10 uM after 48 hrs by sulforhodamine B assay relative to control; conditions: RXF 393, 48 h, read-out: Activity
NCI-H23 = test: Growth inhibition of human NCI-H23 cells assessed as cell growth at 10 uM after 48 hrs by sulforhodamine B assay relative to control; conditions: NCI-H23, 48 h, read-out: Activity
[10] = Growth inhibition of human MOLT4 cells assessed as cell growth at 10 uM after 48 hrs by sulforhodamine B assay relative to control; conditions: MOLT-4, 48 h, read-out: Activity

| SMILES | growth at 10 µM [1] [%] | growth at 10 µM (PC-3) [%] | growth at 10 µM (SF-268) [%] | growth at 10 µM (M14) [%] | growth at 10 µM [2] [%] | growth at 10 µM (SNB-75) [%] | growth at 10 µM (DU-145) [%] | growth at 10 µM [3] [%] | growth at 10 µM (RPMI-8226) [%] | growth at 10 µM (NCI-H322M) [%] | growth at 10 µM (MDA-MB-231) [%] | growth at 10 µM (HT-29) [%] | growth at 10 µM (A549) [%] | growth at 10 µM [4] [%] | growth at 10 µM (786-0) [%] | growth at 10 µM (SN12C) [%] | growth at 10 µM (MDA-MB-468) [%] | growth at 10 µM (SK-MEL-5) [%] | growth at 10 µM (T47D) [%] | growth at 10 µM [5] [%] | also measured |
| --- | --- | --- | --- | --- | --- | --- | --- | --- | --- | --- | --- | --- | --- | --- | --- | --- | --- | --- | --- | --- | --- |
| Nc1nc(-c2ccccc2Cl)cc(-c2ccc(Cl)cc2Cl)n1 | 96.2 | 74.2 | 65.9 | 53.5 | 79.8 | 30.5 | 91.4 | 85.2 | 35.2 | 89.5 | 65 | 36.6 | 52.7 | 63.1 | 90.2 | 79.6 | 18.6 | 75.2 | 63.7 | 61.9 | growth at 10 µM (ACHN): 86%; growth at 10 µM (HOP-62): 76.2%; growth at 10 µM (Malme-3M): 86.6%; growth at 10 µM (COLO 205): 64.9%; growth at 10 µM (SW-620): 39%; growth at 10 µM [6]: 90.2%; growth at 10 µM (U-251): 65%; growth at 10 µM [7]: 62.5%; growth at 10 µM (A498): 53.7%; growth at 10 µM (CCRF-CEM): 57.5%; growth at 10 µM [8]: 38.7%; growth at 10 µM (HCT-116): 33%; growth at 10 µM [9]: 75.8%; growth at 10 µM (NCI-H23): 75.4%; growth at 10 µM [10]: 52.6% |
| O=C1CS/C(=N\c2nc(-c3ccccc3Cl)cc(-c3ccc(Cl)cc3Cl)n2)N1 | 108 | 83.8 | 92.2 | 94 | 98.1 | 76.6 | 105 | 101 | 99.6 | 94.9 | 88.8 | 107 | 91.2 | 91.2 | 99.7 | 98.5 | 93.5 | 103 | 86.5 | 97.7 | growth at 10 µM (ACHN): 98.1%; growth at 10 µM (HOP-62): 87.5%; growth at 10 µM (Malme-3M): 87.3%; growth at 10 µM (COLO 205): 100%; growth at 10 µM (SW-620): 92.9%; growth at 10 µM [6]: 102%; growth at 10 µM (U-251): 105%; growth at 10 µM [7]: 58%; growth at 10 µM (A498): 101%; growth at 10 µM (CCRF-CEM): 85.9%; growth at 10 µM [8]: 116%; growth at 10 µM (HCT-116): 94.5%; growth at 10 µM [9]: 111%; growth at 10 µM (NCI-H23): 90%; growth at 10 µM [10]: 92% |
| O=C1N/C(=N/c2nc(-c3ccccc3Cl)cc(-c3ccc(Cl)cc3Cl)n2)S/C1=C/c1ccc(Cl)cc1 | 102 | 79 | 90.9 | 102 | 90.1 | 97.5 | 100 | 89.2 | 83.6 | 78.1 | 63.2 | 103 | 88.8 | 70.2 | 100 | 91.5 | 34.2 | 83.6 | 60.9 | 91.9 | growth at 10 µM (ACHN): 91.6%; growth at 10 µM (HOP-62): 80.2%; growth at 10 µM (Malme-3M): 91.5%; growth at 10 µM (COLO 205): 83.2%; growth at 10 µM (SW-620): 76.6%; growth at 10 µM [6]: 90%; growth at 10 µM (U-251): 89.4%; growth at 10 µM [7]: 55.2%; growth at 10 µM (A498): 76.2%; growth at 10 µM (CCRF-CEM): 75.5%; growth at 10 µM [8]: 48.6%; growth at 10 µM (HCT-116): 75.4%; growth at 10 µM [9]: 100%; growth at 10 µM (NCI-H23): 76%; growth at 10 µM [10]: 94.2% |
